Laboratory results taken from BigSolDB 2.1.

O=C(O[C@@H]1Cc2c(O)cc(O)cc2O[C@@H]1c1cc(O)c(O)c(O)c1)c1cc(O)c(O)c(O)c1
solubility (mole fraction)
Conditions	278.15 K	288.15 K	298.15 K	308.15 K	318.15 K
in 2-butoxyethanol	0.00142	0.00195	0.00268	0.00384	0.00559
in 2-ethoxyethanol	0.00904	0.0151	0.0272	0.0436	0.0701
in 2-methoxyethanol	0.0158	0.0254	0.0365	0.0558	0.0815
in 2-propoxyethanol	0.00275	0.00352	0.00456	0.0059	0.00809
in ethanol	5.41e-05	9.24e-05	0.000175	0.000387	0.000714
in isopropanol	6e-06	1.67e-05	5.53e-05	0.000194	0.000481
in methanol	–	1.65e-05	5.8e-05	0.000184	0.000612
in n-butanol	–	1.95e-05	5.41e-05	0.000136	0.000349
in n-hexanol	6.8e-07	3.87e-06	1.79e-05	5.35e-05	0.000138
in n-pentanol	9.9e-07	5.7e-06	3.01e-05	8.6e-05	0.000187
in n-propanol	1.22e-05	3.79e-05	9.06e-05	0.000195	0.000656
in sec-butanol	5.04e-06	2.12e-05	4.97e-05	0.00014	0.000636
